Measured values taken from the CombiSolv-Exp solvation set (Vermeire and Green 2021).

Experiment: solvent given as SMILES

Cc1ccccc1
Settings | solvation free energy, 298 K [kcal/mol]
in Brc1ccccc1 | -5.15
in C1CCCCC1 | -4.89
in C1CCOC1 | -5.44
in C1COCCO1 | -5.15
in C=CCCCCCCCCCCCCCC | -4.57
in CC1CCS(=O)(=O)C1 | -4.64
in CC1COC(=O)O1 | -4.43
in CC#N | -4.72
in CC(=O)N(C)C | -4.91
in CC(=O)O | -4.57
in CC(=O)c1ccccc1 | -4.93
in CC(C)(C)O | -4.41
in CC(C)=O | -4.97
in CC(C)CC(C)(C)C | -4.66
in CC(C)CCCC(C)CCCC(C)CCCCC(C)CCCC(C)CCCC(C)C | -4.43
in CC(C)CCO | -4.47
in CC(C)CO | -4.37
in CC(C)O | -4.38
in CC(C)OC(C)C | -4.89
in CC(Cl)Cl | -5.32
in CC(O)CO | -3.58
in CCBr | -5.44
in CCC#N | -5.16
in CCC(C)=O | -5.07
in CCCC#N | -5.01
in CCCCC | -4.75
in CCCCC(CC)COC(=O)CCCCC(=O)OCC(CC)CCCC | -4.78
in CCCCC(CC)COC(=O)c1ccccc1C(=O)OCC(CC)CCCC | -4.55
in CCCCCC | -4.78
in CCCCCCC | -4.74
in CCCCCCCCCC | -4.66
in CCCCCCCCCCCCCCCC | -4.57
in CCCCCCCCO | -4.5
in CCCCCCO | -4.53
in CCCCCO | -4.49
in CCCCCl | -5.16
in CCCCN(C=O)CCCC | -4.91
in CCCCO | -4.52
in CCCCOC(=O)c1ccccc1C(=O)OCCCC | -4.82
in CCCCOC(C)=O | -5.5
in CCCCOCCCC | -4.88
in CCCO | -4.51
in CCN1CCCC1=O | -5.06
in CCN(CC)C(C)=O | -4.97
in CCN(CC)CC | -4.93
in CCNC(C)=O | -4.57
in CCNC=O | -4.49
in CCO | -4.46
in CCOC(=O)c1ccccc1C(=O)OCC | -4.68
in CCOC(C)=O | -5.04
in CCOCC | -5.12
in CCOCCOCCOCC | -4.96
in CCOc1ccccc1 | -5.02
in CN1CCCC1=O | -4.95
in CN1CCCCC1=O | -5.02
in CN(C)C=O | -4.89
in CN(C)P(=O)(N(C)C)N(C)C | -5
in CNC(C)=O | -4.57
in CNC=O | -4.35
in CO | -4.35
in COCCO | -4.55
in COc1ccccc1 | -5.04
in CS(C)=O | -4.53
in Cc1ccc(C)cc1 | -5.08
in Cc1cccc(C)n1 | -5.1
in Cc1cccc(O)c1 | -4.63
in Cc1ccccn1 | -5.12
in ClC(Cl)(Cl)Cl | -5.18
in ClC(Cl)Cl | -5.53
in ClCCCl | -5.3
in ClCCl | -5.5
in Clc1ccccc1 | -5.2
in FC(F)(F)C(F)(F)C(F)(F)C(F)(F)C(F)(F)C(F)(F)F | -3.08
in Fc1c(F)c(F)c(F)c(F)c1F | -5.33
in Fc1ccccc1 | -5.24
in ICI | -4.53
in Ic1ccccc1 | -5.03
in NC=O | -3.02
in NCCO | -3.5
in Nc1ccccc1 | -4.6
in O | -0.85
in O=C1CCCCC1 | -5.13
in O=C1CCCO1 | -4.72
in O=CN1CCOCC1 | -4.48
in O=Cc1ccco1 | -4.56
in OCCCCCO | -3.84
in OCCCCO | -3.79
in OCCCO | -3.52
in OCCO | -3.02
in OCCOCCOCCOCCO | -3.99
in OCCS | -4.12
in OCc1ccccc1 | -4.53
in S=C=S | -5.33
in [2H]O[2H] | -0.99
in c1ccc2ncccc2c1 | -4.82
in c1ccc(COCc2ccccc2)cc1 | -4.79
in c1ccccc1 | -5.32
in c1ccncc1 | -5.11

CCCOCCC
Settings | solvation free energy, 298 K [kcal/mol]
in C=CCCCCCCCCCCCCCC | -4
in CC(C)(C)O | -4.13
in CC(C)CO | -4.17
in CC(C)O | -4.02
in CCC(C)=O | -4.37
in CCC(C)O | -4.15
in CCCCCCCCCCCCCCCC | -4.02
in CCCCCCCCO | -4.05
in CCCCCCO | -4.12
in CCCCCl | -4.68
in CCCCO | -4.13
in CN(C)C=O | -3.62
in CO | -3.94
in ClC(Cl)(Cl)Cl | -4.83
in ClCCl | -5.02
in O | -1.23
in [2H]O[2H] | -1.37

FC(F)(F)c1cccc(C(F)(F)F)c1
Settings | solvation free energy, 298 K [kcal/mol]
in O | 1.07

CC(C)(C)C
Settings | solvation free energy, 298 K [kcal/mol]
in C1COCCO1 | -2.16
in CC(C)=O | -2.22
in CCCCCC | -2.77
in CCO | -2.2
in CO | -1.91
in O | 2.66

FCCl
Settings | solvation free energy, 298 K [kcal/mol]
in O | -0.77

CCOC(C)O (configuration not stated)
Settings | solvation free energy, 298 K [kcal/mol]
in O | -6.7

CC(C)COC(=O)C(C)C
Settings | solvation free energy, 298 K [kcal/mol]
in O | -1.69

COC(F)(F)C(Cl)Cl
Settings | solvation free energy, 298 K [kcal/mol]
in O | -1.12

CCCCCCCCCCCCCCC
Settings | solvation free energy, 298 K [kcal/mol]
in O | 4.29

CNC
Settings | solvation free energy, 298 K [kcal/mol]
in CCCCCC | -2.48
in CCCCCCCCCC | -2.31
in CCCCCCCCO | -2.73
in CCCO | -2.99
in CCO | -3.27
in CN(C)C=O | -2.88
in CO | -3.51
in ClC(Cl)(Cl)Cl | -2.88
in N#Cc1ccccc1 | -2.8
in O | -4.3

CC(C)=CCCC1(C)C2CC3C(C2)C31C (configuration not stated)
Settings | solvation free energy, 298 K [kcal/mol]
in O | 0.55

ClCBr
Settings | solvation free energy, 298 K [kcal/mol]
in C1CCCCC1 | -3.69
in ClC(Cl)(Cl)Cl | -3.93
in c1ccccc1 | -4.32

CCCCOC(=O)c1ccccc1O
Settings | solvation free energy, 298 K [kcal/mol]
in O | -3.51

CCCCCCCCOC(=O)c1ccccc1C(=O)OCCCCCCCC
Settings | solvation free energy, 298 K [kcal/mol]
in O | -6.68

CCSc1nc(NC(C)C)nc(NC(C)C)n1
Settings | solvation free energy, 298 K [kcal/mol]
in O | -9

CC1=C(C)C2CCC1C2
Settings | solvation free energy, 298 K [kcal/mol]
in O | 0.53

Nc1ccccc1-c1ccccc1
Settings | solvation free energy, 298 K [kcal/mol]
in O | -7.27

CCc1ccc(CC)cc1
Settings | solvation free energy, 298 K [kcal/mol]
in CC(C)(C)O | -6.3

Cc1ccc(C)cc1
Settings | solvation free energy, 298 K [kcal/mol]
in CC#N | -5.16
in CC(C)CC(C)(C)C | -5.39
in CC(C)CO | -4.94
in CC(O)CO | -4.14
in CCCCCCC | -5.45
in CCCCCCCCCCCCCCCC | -5.27
in CCCCCCCCO | -5.17
in CCCCOC(C)=O | -6.1
in CCO | -5.09
in CNC=O | -4.8
in COCCO | -5.06
in ClC(Cl)(Cl)Cl | -5.73
in ClCCCl | -5.96
in NC=O | -3.27
in NCCO | -3.84
in O | -0.75
in O=CN1CCOCC1 | -4.98
in OCCO | -3.4
in OCCOCCO | -4.23
in OCCOCCOCCO | -4.37
